Data from ChEMBL document CHEMBL5331073, “Discovery of novel 7,7-dimethyl-6,7-dihydro-5H-pyrrolo[3,4-d]pyrimidines as ATR inhibitors based on structure-based drug design” (Eur J Med Chem, 2023).

Assays:
[1] = AUC (0 to infinity) in Sprague-Dawley rat at 5 mg/kg, po and measured upto 24 hrs by LC-MS analysis; assay type: ADME, organism-based; parameters: time < 24 hrs, dose 5 mg/kg, route po; conditions: in vivo
Cytochrome P450 3A4 [2] = biological target: T1, Cytochrome P450 3A4 (Homo sapiens, UniProt P08684); test: Inhibition of CYP3A4 in human liver microsomes using […] as substrate preincubated for 5 mins followed by NADPH addition and measured after 120 mins by LC-MS/MS analysis; assay type: ADME, Microsome
T1 sequence (P08684 whole entry): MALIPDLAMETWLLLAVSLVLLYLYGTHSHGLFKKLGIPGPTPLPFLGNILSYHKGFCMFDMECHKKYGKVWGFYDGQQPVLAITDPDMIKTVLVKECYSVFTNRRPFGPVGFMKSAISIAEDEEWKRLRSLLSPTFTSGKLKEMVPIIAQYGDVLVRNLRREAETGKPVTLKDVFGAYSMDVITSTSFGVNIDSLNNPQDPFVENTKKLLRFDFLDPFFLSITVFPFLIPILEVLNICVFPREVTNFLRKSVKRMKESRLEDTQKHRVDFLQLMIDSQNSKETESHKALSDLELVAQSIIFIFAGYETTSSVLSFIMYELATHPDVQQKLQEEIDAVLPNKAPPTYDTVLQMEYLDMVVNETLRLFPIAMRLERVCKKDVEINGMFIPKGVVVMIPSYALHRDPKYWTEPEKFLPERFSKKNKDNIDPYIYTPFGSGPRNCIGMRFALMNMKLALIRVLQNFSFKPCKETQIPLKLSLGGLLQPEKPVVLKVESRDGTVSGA

[3] = Protein binding in rat plasma at 1 uM incubated for 6 hrs by dialysis based LC-MS/MS analysis; assay type: ADME, cell-free; conditions: read-out: PPB (converted)
HT-29 [4] = test: Antiproliferative activity against ATM-proficient human HT-29 cells assessed as reduction in cell viability incubated for 3 days in presence of AZD-1390 by MTT assay; assay type: functional, cell-based; conditions: HT-29, 72 h
in vitro [5] = conditions: human, liver microsomes
[6] = biological target: Serine-protein kinase ATM (Homo sapiens, UniProt Q13315); test: Inhibition of ATM (unknown origin) using peptide as substrate preincubated for 10 mins followed by substrate addition by microplate reader analysis
HCT-116 [7] = test: Antiproliferative activity against ATM-proficient human HCT-116 cells assessed as reduction in cell viability incubated for 3 days by MTT assay; assay type: functional, cell-based; conditions: HCT-116, 72 h
Cytochrome P450 3A4 [8] = biological target: T1, Cytochrome P450 3A4; test: Inhibition of CYP3A4 in human liver microsomes using midazolam as substrate preincubated for 5 mins followed by NADPH addition and measured after 120 mins by LC-MS/MS analysis; assay type: ADME, Microsome
[9] = Half life in Sprague-Dawley rat at 5 mg/kg, po and measured upto 24 hrs by LC-MS analysis; assay type: ADME, organism-based; conditions: in vivo
in vitro [10] = conditions: human, liver microsomes; remark: listed apart in the source
[11] = biological target: Phosphatidylinositol 4,5-bisphosphate 3-kinase catalytic subunit alpha isoform (Homo sapiens, UniProt P42336); test: Inhibition of PI3Kalpha (unknown origin) using peptide as substrate preincubated for 10 mins followed by substrate addition by microplate reader analysis
Phosphatidylinositol 4,5-bisphosphate 3-kinase catalytic subunit alpha isoform, sequence (P42336 whole entry, canonical isoform): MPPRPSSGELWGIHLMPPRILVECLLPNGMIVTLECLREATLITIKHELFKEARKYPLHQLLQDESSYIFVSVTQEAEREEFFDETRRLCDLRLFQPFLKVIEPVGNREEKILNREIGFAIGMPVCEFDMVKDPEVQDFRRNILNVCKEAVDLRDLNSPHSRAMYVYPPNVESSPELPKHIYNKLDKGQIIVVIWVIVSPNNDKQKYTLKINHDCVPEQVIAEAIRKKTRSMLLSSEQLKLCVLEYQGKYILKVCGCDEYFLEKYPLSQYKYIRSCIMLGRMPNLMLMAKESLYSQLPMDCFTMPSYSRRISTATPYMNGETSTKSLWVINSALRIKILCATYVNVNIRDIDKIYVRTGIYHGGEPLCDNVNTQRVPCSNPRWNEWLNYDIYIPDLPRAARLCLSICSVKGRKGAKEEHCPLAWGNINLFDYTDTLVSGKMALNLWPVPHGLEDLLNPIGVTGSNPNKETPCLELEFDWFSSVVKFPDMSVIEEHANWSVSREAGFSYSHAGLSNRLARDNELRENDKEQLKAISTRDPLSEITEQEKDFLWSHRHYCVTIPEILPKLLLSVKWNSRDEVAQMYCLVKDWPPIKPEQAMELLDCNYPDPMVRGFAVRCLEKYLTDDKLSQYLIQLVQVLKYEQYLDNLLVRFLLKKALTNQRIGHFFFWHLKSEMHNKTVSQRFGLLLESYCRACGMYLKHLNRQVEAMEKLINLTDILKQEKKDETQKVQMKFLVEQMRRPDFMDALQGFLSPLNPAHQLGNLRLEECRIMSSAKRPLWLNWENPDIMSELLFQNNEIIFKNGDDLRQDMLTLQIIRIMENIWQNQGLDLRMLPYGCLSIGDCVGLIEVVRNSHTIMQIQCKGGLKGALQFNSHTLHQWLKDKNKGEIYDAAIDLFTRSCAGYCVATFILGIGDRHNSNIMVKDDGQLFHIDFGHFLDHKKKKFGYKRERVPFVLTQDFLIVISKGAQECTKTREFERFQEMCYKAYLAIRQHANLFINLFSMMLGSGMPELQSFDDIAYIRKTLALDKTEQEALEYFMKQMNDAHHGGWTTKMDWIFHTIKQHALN

[12] = Tmax in Sprague-Dawley rat at 5 mg/kg, po and measured upto 24 hrs by LC-MS analysis; assay type: ADME, organism-based; conditions: in vivo
[13] = Protein binding in human plasma at 1 uM incubated for 6 hrs by dialysis based LC-MS/MS analysis; assay type: ADME, cell-free; conditions: read-out: PPB (converted)
OVCAR-3 = test: Antiproliferative activity against ATM-deficient human OVCAR-3 cells assessed as reduction in cell viability incubated for 3 days by MTT assay; assay type: functional, cell-based; conditions: OVCAR-3, 72 h
[14] = Oral bioavailability in Sprague-Dawley rat at 5 mg/kg and measured upto 24 hrs by LC-MS analysis; assay type: ADME, organism-based; conditions: in vivo
HCT-116 [15] = test: Antiproliferative activity against ATM-proficient human HCT-116 cells assessed as reduction in cell viability incubated for 3 days in presence of AZD-1390 by MTT assay; assay type: functional, cell-based; conditions: HCT-116, 72 h
[16] = MRT(t) in Sprague-Dawley rat at 1 mg/kg, iv and measured upto 24 hrs by LC-MS analysis; assay type: ADME, organism-based; conditions: in vivo
LoVo [17] = test: Inhibition of colony formation of ATM-deficient human LoVo cells at 0.03 to 3 uM incubated for 2 weeks by crystal violet staining based assay; assay type: functional, cell-based; conditions: dose 0.03-3 µM
[18] = MRT(t) in Sprague-Dawley rat at 5 mg/kg, po and measured upto 24 hrs by LC-MS analysis; assay type: ADME, organism-based; conditions: in vivo
HCT-116 [19] = test: Synergistic antiproliferative activity against ATM-proficient human HCT-116 cells assessed as reduction in cell viability incubated for 3 days in presence of oxaliplatin by MTT assay; assay type: functional, cell-based; conditions: HCT-116, 72 h
[20] = biological target: Serine/threonine-protein kinase ATR (Homo sapiens, UniProt Q13535); test: Inhibition of ATR (unknown origin) using peptide as substrate preincubated for 10 mins followed by substrate addition by microplate reader analysis
Serine/threonine-protein kinase ATR, sequence (Q13535 whole entry): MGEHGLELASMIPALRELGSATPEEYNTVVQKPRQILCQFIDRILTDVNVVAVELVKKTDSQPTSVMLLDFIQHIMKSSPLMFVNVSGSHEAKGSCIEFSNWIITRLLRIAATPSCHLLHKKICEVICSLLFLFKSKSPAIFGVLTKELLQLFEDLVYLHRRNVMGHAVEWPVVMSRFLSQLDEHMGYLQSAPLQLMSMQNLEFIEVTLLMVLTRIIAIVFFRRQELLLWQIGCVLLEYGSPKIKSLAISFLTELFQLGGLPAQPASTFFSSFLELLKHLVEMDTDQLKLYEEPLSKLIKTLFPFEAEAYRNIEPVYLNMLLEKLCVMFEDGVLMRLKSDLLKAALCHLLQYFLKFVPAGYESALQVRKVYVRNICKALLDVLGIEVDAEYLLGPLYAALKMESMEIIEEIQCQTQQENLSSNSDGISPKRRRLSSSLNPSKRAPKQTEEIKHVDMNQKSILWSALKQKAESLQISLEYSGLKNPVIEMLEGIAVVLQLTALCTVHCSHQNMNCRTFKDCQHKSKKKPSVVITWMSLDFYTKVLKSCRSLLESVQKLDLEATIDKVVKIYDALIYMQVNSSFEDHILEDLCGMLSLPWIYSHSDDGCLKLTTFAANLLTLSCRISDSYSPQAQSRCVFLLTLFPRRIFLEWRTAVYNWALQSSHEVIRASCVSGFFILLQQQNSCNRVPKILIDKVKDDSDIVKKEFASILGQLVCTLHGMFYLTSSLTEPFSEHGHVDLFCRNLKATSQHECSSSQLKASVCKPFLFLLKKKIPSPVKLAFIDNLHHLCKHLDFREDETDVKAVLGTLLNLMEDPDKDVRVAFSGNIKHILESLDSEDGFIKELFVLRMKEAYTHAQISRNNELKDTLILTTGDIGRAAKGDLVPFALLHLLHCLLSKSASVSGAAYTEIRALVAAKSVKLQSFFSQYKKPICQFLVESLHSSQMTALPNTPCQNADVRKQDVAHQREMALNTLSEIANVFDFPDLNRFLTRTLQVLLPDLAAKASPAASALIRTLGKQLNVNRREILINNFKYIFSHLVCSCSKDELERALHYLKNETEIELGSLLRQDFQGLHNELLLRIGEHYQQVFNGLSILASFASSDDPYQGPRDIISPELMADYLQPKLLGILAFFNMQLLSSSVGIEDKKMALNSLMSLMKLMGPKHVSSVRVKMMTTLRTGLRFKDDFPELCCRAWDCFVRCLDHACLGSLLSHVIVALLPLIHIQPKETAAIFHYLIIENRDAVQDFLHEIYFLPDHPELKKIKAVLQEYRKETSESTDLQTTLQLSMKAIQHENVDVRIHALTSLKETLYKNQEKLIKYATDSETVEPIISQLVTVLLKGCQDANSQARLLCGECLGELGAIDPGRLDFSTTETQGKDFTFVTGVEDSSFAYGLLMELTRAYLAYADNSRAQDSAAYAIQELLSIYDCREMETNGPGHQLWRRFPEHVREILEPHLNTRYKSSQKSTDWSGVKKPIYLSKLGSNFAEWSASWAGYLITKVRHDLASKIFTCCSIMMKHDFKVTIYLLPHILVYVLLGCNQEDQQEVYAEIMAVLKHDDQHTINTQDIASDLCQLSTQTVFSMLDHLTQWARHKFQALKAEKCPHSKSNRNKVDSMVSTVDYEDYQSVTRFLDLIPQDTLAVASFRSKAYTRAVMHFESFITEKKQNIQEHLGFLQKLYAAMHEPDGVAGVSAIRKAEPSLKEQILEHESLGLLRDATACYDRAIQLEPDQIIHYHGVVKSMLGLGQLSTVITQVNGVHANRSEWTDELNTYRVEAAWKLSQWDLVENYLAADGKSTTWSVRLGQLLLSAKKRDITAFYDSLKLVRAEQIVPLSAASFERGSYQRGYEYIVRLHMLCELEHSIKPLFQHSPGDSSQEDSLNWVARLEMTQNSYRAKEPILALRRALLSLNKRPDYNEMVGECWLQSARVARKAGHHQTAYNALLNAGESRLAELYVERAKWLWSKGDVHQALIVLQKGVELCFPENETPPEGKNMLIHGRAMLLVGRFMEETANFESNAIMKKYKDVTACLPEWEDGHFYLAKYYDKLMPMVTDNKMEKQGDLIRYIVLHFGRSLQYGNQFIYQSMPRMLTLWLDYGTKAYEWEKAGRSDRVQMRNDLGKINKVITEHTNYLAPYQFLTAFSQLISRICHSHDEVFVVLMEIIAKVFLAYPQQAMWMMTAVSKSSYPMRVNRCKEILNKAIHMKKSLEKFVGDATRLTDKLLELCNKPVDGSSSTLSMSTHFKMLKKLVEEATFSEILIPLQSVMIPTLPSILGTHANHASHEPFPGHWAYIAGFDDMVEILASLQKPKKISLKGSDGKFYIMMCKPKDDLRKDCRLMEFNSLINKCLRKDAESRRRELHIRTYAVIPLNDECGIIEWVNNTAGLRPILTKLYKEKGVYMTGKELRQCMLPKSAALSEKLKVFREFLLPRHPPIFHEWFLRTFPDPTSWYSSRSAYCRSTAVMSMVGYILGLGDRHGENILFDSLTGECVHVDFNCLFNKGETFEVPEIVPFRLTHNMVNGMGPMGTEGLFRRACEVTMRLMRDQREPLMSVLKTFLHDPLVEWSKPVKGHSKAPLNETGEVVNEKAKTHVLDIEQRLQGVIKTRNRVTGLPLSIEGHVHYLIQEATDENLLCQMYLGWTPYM

MDA-MB-231 [21] = test: Synergistic antiproliferative activity against human MDA-MB-231 cells assessed as reduction in cell viability incubated for 3 days in presence of olaparib by MTT assay; assay type: functional, cell-based; conditions: MDA-MB-231, 72 h
A549 [22] = test: Synergistic antiproliferative activity against ATM-proficient human A549 cells assessed as reduction in cell viability incubated for 3 days in presence of cisplatin by MTT assay; assay type: functional, cell-based; conditions: A549, 72 h
Cytochrome P450 1A2 = biological target: T2, Cytochrome P450 1A2 (Homo sapiens, UniProt P05177); test: Inhibition of CYP1A2 in human liver microsomes using […] as substrate preincubated for 5 mins followed by NADPH addition and measured after 120 mins by LC-MS/MS analysis; assay type: ADME, Microsome
T2 sequence (P05177 whole entry): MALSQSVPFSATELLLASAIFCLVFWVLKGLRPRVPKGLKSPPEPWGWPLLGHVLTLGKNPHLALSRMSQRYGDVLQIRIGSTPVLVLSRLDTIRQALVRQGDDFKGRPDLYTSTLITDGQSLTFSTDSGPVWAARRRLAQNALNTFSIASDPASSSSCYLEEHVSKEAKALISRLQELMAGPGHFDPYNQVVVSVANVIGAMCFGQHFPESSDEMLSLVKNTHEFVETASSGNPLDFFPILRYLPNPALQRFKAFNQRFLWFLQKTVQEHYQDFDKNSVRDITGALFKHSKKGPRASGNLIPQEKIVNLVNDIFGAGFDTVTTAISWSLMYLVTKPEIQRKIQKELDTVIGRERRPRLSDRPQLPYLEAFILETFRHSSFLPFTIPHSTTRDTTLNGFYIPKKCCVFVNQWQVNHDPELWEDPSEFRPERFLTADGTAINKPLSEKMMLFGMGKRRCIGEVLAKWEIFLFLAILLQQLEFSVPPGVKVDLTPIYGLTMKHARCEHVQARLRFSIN

MCF7 = test: Synergistic antiproliferative activity against human MCF7 cells assessed as reduction in cell viability incubated for 3 days in presence of olaparib by MTT assay; assay type: functional, cell-based; conditions: MCF7, 72 h
in vitro [23] = conditions: rat, liver microsomes
LoVo [24] = test: Antiproliferative activity against ATM-deficient human LoVo cells assessed as reduction in cell proliferation incubated for 3 days by MTT assay; assay type: functional, cell-based; conditions: 72 h
HT-29 [25] = test: Antiproliferative activity against ATM-proficient human HT-29 cells assessed as reduction in cell proliferation incubated for 3 days by MTT assay; assay type: functional, cell-based; conditions: HT-29, 72 h
[26] = AUC(0 to infinity) in Sprague-Dawley rat at 1 mg/kg, iv and measured upto 24 hrs by LC-MS analysis; assay type: ADME, organism-based; parameters: time < 24 hrs, dose 1 mg/kg, route iv; conditions: in vivo
SW-620 = test: Antiproliferative activity against ATM-deficient human SW620 cells assessed as reduction in cell viability incubated for 3 days by MTT assay; assay type: functional, cell-based; conditions: SW-620, 72 h
[27] = MRT (0 to infinity) in Sprague-Dawley rat at 1 mg/kg, iv and measured upto 24 hrs by LC-MS analysis; assay type: ADME, organism-based; conditions: in vivo
[28] = Protein binding in mouse plasma at 1 uM incubated for 6 hrs by dialysis based LC-MS/MS analysis; assay type: ADME, cell-free; conditions: read-out: PPB (converted)
A549 [29] = test: Synergistic antiproliferative activity against ATM-proficient human A549 cells assessed as reduction in cell viability incubated for 3 days in presence of oxaliplatin by MTT assay; assay type: functional, cell-based; conditions: A549, 72 h
MDA-MB-231 [30] = test: Antiproliferative activity against human MDA-MB-231 cells assessed as reduction in cell viability incubated for 3 days by MTT assay; assay type: functional, cell-based; conditions: MDA-MB-231, 72 h
[31] = Apparent permeability across basolateral to apical side in human Caco-2 cells by bidirectional permeability assay; assay type: ADME, cell-based

Structure (SMILES)	AUC(0-inf) [1] [ng·h/mL]	IC50 (Cytochrome P450 3A4 [2]) [µM]	fraction unbound at 6 h, 1 µM [3]	IC50 (HT-29 [4]) [nM]	half-life at 1 h, 1 µM (in vitro [5]) [min]	IC50 [6] [nM]	IC50 (HCT-116 [7]) [nM]	IC50 (Cytochrome P450 3A4 [8]) [nM]	half-life [9] [min]	CLint scaled at 1 h, 1 µM (in vitro [10]) [mL/min/kg]	IC50 [11] [nM]	Tmax [12] [h]	fraction unbound at 6 h, 1 µM [13]	IC50 (OVCAR-3) [nM]	bioavailability [14] [%]	IC50 (HCT-116 [15]) [nM]	MRT last at 24 h [16] [h]	inhibition (LoVo [17])	MRT last at 24 h [18] [h]	IC50 (HCT-116 [19]) [nM]	further results
C[C@@H]1COCCN1c1nc(-c2cccc3[nH]ccc23)nc2c1CN(C(=O)c1ccc3c(c1)OCO3)C2(C)C	6170	1	0.001	45	26.1	516	196	1000	229	50.3	1000	1.67	0.001	127	41.6	84	1.99	Dose-Dependent Effect	4.36	67	IC50 [20]: 5 nM; IC50 (MDA-MB-231 [21]): 279 nM; IC50 (A549 [22]): 439 nM; IC50 (Cytochrome P450 1A2): > 10 µM; IC50 (MCF7): 347 nM; half-life at 1 h, 1 µM (in vitro [23]): 39.3 min; IC50 (LoVo [24]): 78 nM; IC50 (HT-29 [25]): 421 nM; AUC(0-inf) [26]: 2810 ng·h/mL; IC50 (SW-620): 145 nM; MRT inf [27]: 2.19 h; fraction unbound at 6 h, 1 µM [28]: 0.005; IC50 (A549 [29]): 337 nM; IC50 (MDA-MB-231 [30]): 2570 nM; Papp B→A [31]: 2.3 ×10⁻⁶ cm/s
C[C@@H]1COCCN1c1nc(-c2cccc3[nH]ccc23)nc2c1CN(C(=O)c1cccc(S(C)(=O)=O)c1)C2(C)C	1750	10	0.039	19	3.4	1000	41	1000	160	385	1000	2	0.003	98	30	1	1.36	Dose-Dependent Effect	3.6	13	IC50 [20]: 3 nM; IC50 (MDA-MB-231 [21]): 435 nM; IC50 (A549 [22]): 280 nM; IC50 (Cytochrome P450 1A2): > 10 µM; IC50 (MCF7): 328 nM; half-life at 1 h, 1 µM (in vitro [23]): 21 min; IC50 (LoVo [24]): 40 nM; IC50 (HT-29 [25]): 197 nM; AUC(0-inf) [26]: 1170 ng·h/mL; IC50 (SW-620): 95 nM; MRT inf [27]: 1.45 h; fraction unbound at 6 h, 1 µM [28]: 0.024; IC50 (A549 [29]): 114 nM; IC50 (MDA-MB-231 [30]): 1070 nM; Papp B→A [31]: 16.7 ×10⁻⁶ cm/s
